# In patent US8710043B2, “TRPM8 antagonists and their use in treatments” (Amgen Inc., priority 2011, dated 2014):
# Target: T1, human TRPM8 (Homo sapiens, UniProt Q7Z2W7)
# T1 construct: expressed in transfected cells; host or cells: Chinese hamster ovary (CHO) cells, T-REx tetracycline-inducible system, co-transfected with aequorin
# Experiment: Luminescence readout assay for measuring intracellular calcium, icilin activation
# Format: cell-based
# Details: CHO cells expressing human TRPM8, aequorin luminescence, 1 μM icilin activation; read-out: hTRPM8 IC50
# Method: Luminescence Readout Assay for Measuring Intracellular Calcium.
# A stable Chinese hamster ovary cell line expressing human TRPM8 was generated using tetracycline inducible T-REx™ expression system from Invitrogen, Inc. (Carlsbad, Calif.). […] Twenty four hours before the assay, cells were seeded in 96-well plates and TRPM8 expression was induced with 0.5 μg/mL tetracycline. […] Potential antagonists were added 2.5 min prior to the addition of agonist, 1 μM icilin, 100 μM L-menthol, or 1 min prior to the addition of cold buffer (<10° C.). The luminescence was measured by a CCD camera based FLASH-luminometer built by Amgen, Inc. A cooling device attached to FLASH luminometer was used for cold activation.
# T1 sequence (Q7Z2W7 whole entry): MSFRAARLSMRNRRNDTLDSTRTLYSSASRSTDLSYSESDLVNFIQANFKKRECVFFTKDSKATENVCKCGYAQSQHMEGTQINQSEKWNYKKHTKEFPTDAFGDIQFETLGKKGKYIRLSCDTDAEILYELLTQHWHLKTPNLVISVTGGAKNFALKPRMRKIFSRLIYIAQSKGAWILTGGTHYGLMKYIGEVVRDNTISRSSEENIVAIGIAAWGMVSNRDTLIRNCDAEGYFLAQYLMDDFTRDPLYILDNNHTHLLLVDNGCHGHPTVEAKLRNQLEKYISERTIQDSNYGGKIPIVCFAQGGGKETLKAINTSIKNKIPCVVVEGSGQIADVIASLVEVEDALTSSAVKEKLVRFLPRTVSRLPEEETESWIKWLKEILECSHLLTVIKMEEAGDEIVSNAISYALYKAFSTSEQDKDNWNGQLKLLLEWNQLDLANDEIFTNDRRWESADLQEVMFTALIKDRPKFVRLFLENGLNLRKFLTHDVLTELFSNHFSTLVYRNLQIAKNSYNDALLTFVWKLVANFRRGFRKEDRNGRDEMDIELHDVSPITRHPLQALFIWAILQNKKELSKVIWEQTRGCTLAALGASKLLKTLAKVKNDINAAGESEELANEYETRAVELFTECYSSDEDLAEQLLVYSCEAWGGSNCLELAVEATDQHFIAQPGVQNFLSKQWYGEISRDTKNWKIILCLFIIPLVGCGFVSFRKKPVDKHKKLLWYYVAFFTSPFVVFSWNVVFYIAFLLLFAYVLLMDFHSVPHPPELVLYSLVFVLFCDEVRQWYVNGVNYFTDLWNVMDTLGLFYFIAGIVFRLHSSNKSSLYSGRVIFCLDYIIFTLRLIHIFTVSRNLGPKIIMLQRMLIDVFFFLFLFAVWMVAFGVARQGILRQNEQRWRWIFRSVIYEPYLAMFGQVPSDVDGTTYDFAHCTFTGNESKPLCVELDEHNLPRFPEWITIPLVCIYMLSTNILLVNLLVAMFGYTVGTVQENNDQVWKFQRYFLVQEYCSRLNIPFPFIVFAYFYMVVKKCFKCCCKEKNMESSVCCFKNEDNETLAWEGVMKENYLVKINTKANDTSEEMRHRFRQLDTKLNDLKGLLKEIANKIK
row,Structure (SMILES),IC50
1,"O=C1Cc2ccc(C(=O)N[C@@H](c3ccc(C(F)(F)F)cc3)c3ncccc3F)cc2N1 [Example 71, (S)-N-((3-fluoropyridin-2-yl)(4-(trifluoromethyl)phenyl)methyl)-2-oxoindoline-6-carboxamide]",0.0092 µM
2,"C=CCN1C(=O)c2ccc(C(=O)N[C@@H](c3ccc(C(F)(F)F)cc3)c3ncccc3C(F)(F)F)cc2C1=O [Example 268, (S)-2-Allyl-1,3-dioxo-N-((4-(trifluoromethyl)phenyl)(3-(trifluoromethyl)pyridin-2-yl)methyl)isoindoline-5-carboxamide]",0.156 µM
3,"Cc1ccc([C@H](NC(=O)c2ccc(=O)n(C)c2)c2ncccc2F)cc1F [Example 335, (S)-N-((3-fluoro-4-methylphenyl)(3-fluoropyridin-2-yl)methyl)-1-methyl-6-oxo-1,6-dihydropyridine-3-carboxamide]",0.209 µM
4,"O=C(N[C@@H](c1ccc(C(F)(F)F)cc1)c1ncccc1C(F)(F)F)c1ccc2c(Cl)ccnc2c1 [Example 110, (S)-4-chloro-N-((4-(trifluoromethyl)phenyl)(3-(trifluoromethyl)pyridin-2-yl)methyl)quinoline-7-carboxamide 2,2,2-trifluoroacetate]",0.0644 µM
5,"Nc1nc(C(=O)N[C@@H](c2ccc(C(F)(F)F)cc2)c2ncccc2C(F)(F)F)cs1 [Example 136, (S)-2-amino-N-((4-(trifluoromethyl)phenyl)(3-(trifluoromethyl)pyridin-2-yl)methyl)thiazole-4-carboxamide 2,2,2-trifluoroacetate]",0.121 µM
6,"O=C(N[C@@H](c1ccc(C(F)(F)F)c(F)c1)c1ncccc1C(F)(F)F)c1ccc2cccnc2n1 [Example 129, (S)-N-((3-fluoro-4-(trifluoromethyl)phenyl)(3-(trifluoromethyl)pyridin-2-yl)methyl)-1,8-naphthyridine-2-carboxamide 2,2,2-trifluoroacetate]",0.114 µM
7,"O=C(N[C@@H](c1ccc(C(F)(F)F)c(F)c1)c1ccccc1C(F)(F)F)c1ccc2ncccc2c1 [Example 257, (S)-N-((3-fluoro-4-(trifluoromethyl)phenyl)(2-(trifluoromethyl)phenyl)methyl)quinoline-6-carboxamide]",0.109 µM
8,"O=C(N[C@@H](c1ccc(OC(F)(F)F)c(F)c1)c1ncccc1F)c1ccc(=O)n(CC2(O)CC2)c1 [Example 407, (S)-N-((3-fluoro-4-(trifluoromethoxy)phenyl)(3-fluoropyridin-2-yl)methyl)-1-((1-hydroxycyclopropyl)methyl)-6-oxo-1,6-dihydropyridine-3-carboxamide]",0.0596 µM
9,"Cc1ncc(C(=O)N[C@@H](c2ccc(C(F)(F)F)cc2)c2ncccc2C(F)(F)F)cn1 [Example 57, (S)-2-methyl-N-((4-(trifluoromethyl)phenyl)(3-(trifluoromethyl)pyridin-2-yl)methyl)pyrimidine-5-carboxamide]",0.0631 µM
10,"O=C(N[C@@H](c1ccc(C(F)(F)F)cc1)c1ncccc1F)c1c[nH]c(=O)c(Br)c1 [Example 368, (S)-5-bromo-N-((3-fluoropyridin-2-yl)(4-(trifluoromethyl)phenyl)methyl)-6-oxo-1,6-dihydropyridine-3-carboxamide]",0.021 µM
11,"O=C(N[C@@H](c1ccc(C(F)(F)F)cc1)c1ncccc1F)c1ccccc1 [Example 180, (S)-N-((3-fluoropyridin-2-yl)(4-(trifluoromethyl)phenyl)methyl)benzamide]",0.0297 µM
12,"CC(C)n1cc(C(=O)N[C@@H](c2ccc(C(F)(F)F)cc2)c2ncccc2F)ccc1=O [Example 367, (S)-N-((3-fluoropyridin-2-yl)(4-(trifluoromethyl)phenyl)methyl)-1-isopropyl-6-oxo-1,6-dihydropyridine-3-carboxamide]",0.0683 µM
13,"CCn1cc(C(=O)N[C@@H](c2ccc(OC(F)(F)F)c(F)c2)c2ncccc2F)ccc1=O [Example 366, (S)-1-ethyl-N-((3-fluoro-4-(trifluoromethoxy)phenyl)(3-fluoropyridin-2-yl)methyl)-6-oxo-1,6-dihydropyridine-3-carboxamide]",0.0097 µM
14,"O=C1CC(C(=O)N[C@@H](c2ccc(C(F)(F)F)cc2)c2ncccc2C(F)(F)F)CN1 (stereo partly drawn) [Example 163, 5-oxo-N-((S)-(4-(trifluoromethyl)phenyl)(3-(trifluoromethyl)pyridin-2-yl)methyl)pyrrolidine-3-carboxamide]",3.18 µM
15,"Cn1cc(C(=O)N[C@@H](c2ccc(OC(F)(F)F)cc2)c2ccccn2)ccc1=O [Example 378, (S)-1-methyl-6-oxo-N-(pyridin-2-yl(4-(trifluoromethoxy)phenyl)methyl)-1,6-dihydropyridine-3-carboxamide]",0.0503 µM
16,"C=CCc1cccnc1[C@@H](NC(=O)[C@@H](C)c1ccccc1)c1ccc(C(F)(F)F)cc1 [Example 235, (S)-N-((S)-(3-allylpyridin-2-yl)(4-(trifluoromethyl)phenyl)methyl)-2-phenylpropanamide]",0.226 µM
17,"O=C(N[C@@H](c1ccc(OC(F)(F)F)cc1)c1ncccc1F)c1ccn2nnnc2c1 [Example 310, (S)-N-((3-fluoropyridin-2-yl)(4-(trifluoromethoxy)phenyl)methyl)tetrazolo[1,5-a]pyridine-7-carboxamide]",0.016 µM
18,"O=C(N[C@@H](c1ccc(C(F)(F)F)cc1)c1ncccc1C(F)(F)F)c1ccc2c(c1)C(=O)N(c1ccccn1)C2=O [Example 99, (S)-1,3-dioxo-2-(pyridin-2-yl)-N-((4-(trifluoromethyl)phenyl)(3-(trifluoromethyl)pydin-2-yl)methyl)isoindoline-5-carboxamide 2,2,2-trifluoroacetate]",0.129 µM
19,"O=C(N[C@@H](c1ccc(OC(F)(F)F)cc1)c1ncccc1F)c1cc2n(n1)CCCO2 [Example 356, (S)-N-((3-fluoropyridin-2-yl)(4-(trifluoromethoxy)phenyl)methyl)-6,7-dihydro-5H-pyrazolo[5,1-b][1,3]oxazine-2-carboxamide]",0.0784 µM
20,"O=C(N[C@@H](c1ccc(C(F)(F)F)cc1)c1ncccc1C(F)(F)F)c1ccn2nnnc2c1 [Example 312, (S)-N-((4-(trifluoromethyl)phenyl)(3-(trifluoromethyl)pyridin-2-yl)methyl)tetrazolo[1,5-a]pyridine-7-carboxamide]",0.0252 µM
21,"Cc1cc(C)cc([C@H](NC(=O)c2ccc(=O)[nH]c2)c2ncccc2F)c1 [Example 324, (S)-N-((3,5-dimethylphenyl)(3-fluoropyridin-2-yl)methyl)-6-oxo-1,6-dihydropyridine-3-carboxamide]",1.05 µM
22,"O=C(N[C@@H](c1ccc(OC(F)(F)F)c(F)c1)c1ncccc1F)c1ccc(=O)n(C[C@H](O)C(F)(F)F)c1 [Example 408, N-((S)-(3-fluoro-4-(trifluoromethoxy)phenyl)(3-fluoropyridin-2-yl)methyl)-6-oxo-1-((S)-3,3,3-trifluoro-2-hydroxypropyl)-1,6-dihydropyridine-3-carboxamide]",0.0781 µM
23,"Cn1ccnc1C(=O)N[C@@H](c1ccc(C(F)(F)F)cc1)c1ncccc1C(F)(F)F [Example 146, (S)-1-methyl-N-((4-(trifluoromethyl)phenyl)(3-(trifluoromethyl)pyridin-2-yl)methyl)-1H-imidazole-2-carboxamide]",0.18 µM
24,"O=C(N[C@@H](c1ccc(C(F)(F)F)cc1)c1ncccc1C(F)(F)F)c1ccc(Cl)nc1 [Example 135, (S)-6-chloro-N-((4-(trifluoromethyl)phenyl)(3-(trifluoromethyl)pyridin-2-yl)methyl)nicotinamide]",0.0194 µM
25,"Cc1cc(C)n2nc(C(=O)N[C@@H](c3ccc(C(F)(F)F)cc3)c3ncccc3C(F)(F)F)nc2n1 [Example 151, (S)-5,7-dimethyl-N-((4-(trifluoromethyl)phenyl)(3-(trifluoromethyl)pyridin-2-yl)methyl)-[1,2,4]triazolo[1,5-a]pyrimidine-2-carboxamide 2,2,2-trifluoroacetate]",0.395 µM
26,"O=C(N[C@@H](c1ccc(C(F)(F)F)cc1)c1ncccc1C(F)(F)F)c1ccc[nH]c1=O [Example 59, (S)-2-oxo-N-((4-(trifluoromethyl)phenyl)(3-(trifluoromethyl)pyridin-2-yl)methyl)-1,2-dihydropyridine-3-carboxamide]",0.0416 µM
27,"Cc1ccc(C(=O)N[C@@H](c2ccc(C(F)(F)F)cc2)c2ncccc2F)cn1 [Example 52, (S)-N-((3-fluoropyridin-2-yl)(4-(trifluoromethyl)phenyl)methyl)-6-methylnicotinamide]",0.0401 µM
28,"O=C(CCc1ccccn1)N[C@@H](c1ccc(C(F)(F)F)cc1)c1ncccc1C(F)(F)F [Example 284, (S)-3-(Pyridin-2-yl)-N-((4-(trifluoromethyl)phenyl)(3-(trifluoromethyl)pyridin-2-yl)methyl)propanamide]",0.346 µM
29,"Cc1ncncc1C(=O)N[C@@H](c1ccc(C(F)(F)F)cc1)c1ncccc1C(F)(F)F [Example 60, (S)-4-methyl-N-((4-(trifluoromethyl)phenyl)(3-(trifluoromethyl)pyridin-2-yl)methyl)pyrimidine-5-carboxamide]",0.0784 µM
30,"O=C(N[C@@H](c1ccc(OC(F)(F)F)c(F)c1)c1ncccc1C(F)(F)F)c1ccc2oc(=O)[nH]c2c1 [Example 385, (S)-N-((3-fluoro-4-(trifluoromethoxy)phenyl)(3-(trifluoromethyl)pyridin-2-yl)methyl)-2-oxo-2,3-dihydrobenzo[d]oxazole-5-carboxamide]",0.0067 µM

# Same assay, conditions: hTRPM8 IC50, CHO cells expressing human TRPM8, aequorin luminescence, 1 μM icilin activation
row,Structure (SMILES),IC50
1,"Cn1nc(C(=O)N[C@@H](c2ccc(C(F)(F)F)cc2)c2ncccc2C(F)(F)F)c2ccccc21 [Example 215, (S)-1-methyl-N-((4-(trifluoromethyl)phenyl)(3-(trifluoromethyl)pyridin-2-yl)methyl)-1H-indazole-3-carboxamide]",0.0845 µM
